# Reference: patent publication US20220257532A1 (priority 2017, published 2022)
# “Also recorded” adds a separate entry of the source. Like-named read-outs stand apart in the source and are kept apart here.
# Experiments:
# [1] = molecular target: T1, butyrylcholinesterase (BChE, EC3.1.1.8) (Equus caballus, UniProt P81908); assay: In vitro cholinesterase activity assay (Ellman) and enzyme kinetics, BChE; assay type: biochemical; conditions: for SI selectivity index (BChE/AChE): ratio of IC50 BChE/AChE; for Inhibition type Butyrylcholinesterase: Dixon plot and Lineweaver plot; for BChE inhibition / IC50 rank, in words: among the compounds tested
# T1 construct: horse serum butyrylcholinesterase (BChE, EC3.1.1.8); purchased Sigma-Aldrich Co. (St. Louis, Mo., USA); host or cells: horse serum
# Experimental: (§1) The reaction started with the addition of 10 μL of DTNB and 10 μL of Ach or Bch.
# (§2) Briefly, the basis for this assay is the hydrolysis of acetylthiocholine by acetylcholinesterase, producing thiocholine that reacts with DTNB. […] Degrees of inhibition were calculated according to […] wherein E and S represent enzyme activities in the presence and absence of a test sample, respectively.
# (§3) The compounds of Table 1 were evaluated for anti-Alzheimer activity. In this regard, inhibitory activity against AChE (acetylcholinesterase) and BChE (butyrylcholinesterase), which lyse acetylcholine in the central nervous system, was measured according to the Experimental Method to calculate IC(inhibition concentrations)50 values.
# [2] = molecular target: T2, acetylcholinesterase (AChE, EC3.1.1.7) (Electrophorus electricus, UniProt O42275); assay: In vitro cholinesterase activity assay (Ellman) and enzyme kinetics, AChE; assay type: biochemical; conditions: for AChE inhibition / IC50 rank, in words: among the compounds tested; for Inhibition type Acetylcholinesterase: Dixon plot and Lineweaver plot
# T2 construct: purchased Sigma-Aldrich Co. (St. Louis, Mo., USA)
# Experimental: as §1, §2, §3
# [3] = tested on: NIH3T3 (mouse embryo fibroblast cell-line); assay: MTT cytotoxicity assay, normal cell line; assay type: cell-based; conditions: conclusion from LD50, MTT
# Experimental: (§4) Mouse fibroblast cell line NIH3T3 and mouse melanoma cell line B16F10 were separately seeded at a density of 1×10^3 cells/well into 96-well plates and grown in DMEM supplemented with 10% FBS (fetal bovine serum) at 37° C. in a 5% CO2 atmosphere. The cells in each cell were incubated for 24 hours with predetermined concentrations of each of the compounds (pterosin A, pterosin B, pterosin C, pterosin D, pterosin P, pterosin Z, pteroside A, pteroside A2, pteroside B, pteroside C isomers, pteroside D, pteroside N, pteroside P, and pteroside Z) and then for 2 hours with 100 μL of MTT (0.5 mg/ml PBS). After aspiration of the medium from each well, incubation was conducted for 10 min with 100 μL of DMSO. Absorbance at 570 nm was read using a microplate reader (SPCTRA MAX 340PC, Molecular Devices, USA). Absorbance is an index accounting for a number of viable cells and was used to calculate cell proliferation rates according to the following formula. All experiments were conducted three times for reproducibility.
# (§5) Cell proliferation rate (%)=OD550 (sample)/OD550 (control)
# (§6) The normal cell line NIH3T3 (mouse embryo fibroblast cell-line) and the cancerous cell line B16F10 (mouse melanoma cell-line) were separately grown in 96-well plates and incubated for 48 hours with predetermined concentrations of each of the compounds. After additional incubation with MTT, absorbance at 550 nm was read using a microplate reader. Absorbance is an index accounting for a number of viable cells and was used to calculate cell proliferation rates according to the following formula. All experiments were conducted three times for reproducibility.
# (§7) Cell proliferation rate (%)=OD550(sample)/OD550(control)
# (§8) Then, LD50 (Lethal Dose 50) values were calculated on the basis of changes in the cell proliferation rate.
# [4] = tested on: B16F10 (mouse melanoma cell-line); assay: MTT cytotoxicity assay, cancerous cell line; assay type: cell-based; conditions: for LD50 Cancer cell 816F10: MTT, incubated for 48 hours with compound; for toxicity to cancerous cells, in words: conclusion from LD50, MTT
# Experimental: as §4, §5, §6, §7, §8
# [5] = molecular target: BACE1 (β-secretase, recombinant human enzyme) (Homo sapiens, UniProt P56817); assay: biochemical; assay type: biochemical; conditions: for Inhibition type BACE1: Dixon plot and Lineweaver plot; for BACE1 IC50 compared with quercetin, in words: positive control quercetin
# Experimental: A BACE1 fluorescence resonance energy transfer (FRET) assay kit (β-secretase, recombinant human enzyme) was purchased from Pan Vera Co. (Madison, Wis., USA).
# BACE1 is an enzyme promotive of the production of β-amyloid, which destroys neurons. In order to examine the effects on the compounds of Table 1 on the activity of BACE1, IC(inhibition concentrations)50 values were determined by measuring BACE1 activity in vitro according to Experimental Methods.
# [6] = concentrations up to 125 μM, read-out: IC50 Acetylcholine esterase Mean ± SEM
# [7] = concentrations up to 125 μM, read-out: IC50 Butyrylcholine esterase Mean ± SEM
# T1 sequence (P81908 whole entry): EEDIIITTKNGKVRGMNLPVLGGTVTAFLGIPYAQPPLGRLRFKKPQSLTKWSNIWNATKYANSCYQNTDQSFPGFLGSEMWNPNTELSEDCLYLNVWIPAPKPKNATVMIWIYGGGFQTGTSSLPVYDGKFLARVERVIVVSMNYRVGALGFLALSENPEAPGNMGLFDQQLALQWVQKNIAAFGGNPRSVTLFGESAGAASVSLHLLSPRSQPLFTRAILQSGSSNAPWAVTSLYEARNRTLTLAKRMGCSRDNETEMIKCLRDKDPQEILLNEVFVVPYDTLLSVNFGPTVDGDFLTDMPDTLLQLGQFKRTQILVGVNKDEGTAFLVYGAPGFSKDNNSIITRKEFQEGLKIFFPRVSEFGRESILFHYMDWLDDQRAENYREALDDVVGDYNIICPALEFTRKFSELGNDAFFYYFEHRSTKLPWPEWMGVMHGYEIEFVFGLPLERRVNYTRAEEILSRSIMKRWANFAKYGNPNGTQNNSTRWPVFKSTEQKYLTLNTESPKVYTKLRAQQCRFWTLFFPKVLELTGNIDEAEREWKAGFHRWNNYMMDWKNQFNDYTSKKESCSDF
# T2 sequence (O42275 24-633): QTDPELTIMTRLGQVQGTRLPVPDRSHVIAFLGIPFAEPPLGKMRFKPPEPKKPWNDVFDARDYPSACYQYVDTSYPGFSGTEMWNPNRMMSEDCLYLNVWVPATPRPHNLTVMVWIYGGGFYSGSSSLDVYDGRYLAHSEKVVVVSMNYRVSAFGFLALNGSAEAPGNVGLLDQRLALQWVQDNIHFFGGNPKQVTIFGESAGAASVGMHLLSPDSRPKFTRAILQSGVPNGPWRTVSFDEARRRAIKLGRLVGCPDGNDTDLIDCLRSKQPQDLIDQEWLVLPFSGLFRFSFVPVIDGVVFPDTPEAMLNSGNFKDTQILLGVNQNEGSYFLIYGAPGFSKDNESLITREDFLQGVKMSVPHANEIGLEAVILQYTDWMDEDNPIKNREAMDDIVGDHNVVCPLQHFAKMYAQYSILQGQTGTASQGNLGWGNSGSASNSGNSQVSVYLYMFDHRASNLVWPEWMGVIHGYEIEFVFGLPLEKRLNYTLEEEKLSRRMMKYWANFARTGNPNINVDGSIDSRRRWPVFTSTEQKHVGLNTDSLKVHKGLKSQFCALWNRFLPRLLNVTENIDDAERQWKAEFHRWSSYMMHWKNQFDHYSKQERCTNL
# Sequence of BACE1 (β-secretase, recombinant human enzyme) (P56817 46-501): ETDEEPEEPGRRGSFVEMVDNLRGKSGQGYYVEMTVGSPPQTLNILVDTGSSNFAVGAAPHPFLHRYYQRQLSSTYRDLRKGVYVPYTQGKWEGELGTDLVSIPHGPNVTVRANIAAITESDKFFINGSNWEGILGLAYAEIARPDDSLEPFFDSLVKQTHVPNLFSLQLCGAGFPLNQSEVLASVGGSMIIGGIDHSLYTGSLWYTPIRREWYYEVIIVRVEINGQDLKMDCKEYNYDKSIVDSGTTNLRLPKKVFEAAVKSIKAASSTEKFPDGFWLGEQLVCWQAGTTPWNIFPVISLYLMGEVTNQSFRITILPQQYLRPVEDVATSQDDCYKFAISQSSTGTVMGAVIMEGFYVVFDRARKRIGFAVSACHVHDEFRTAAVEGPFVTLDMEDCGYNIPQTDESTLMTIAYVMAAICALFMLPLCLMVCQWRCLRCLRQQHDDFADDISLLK
structure (smiles),measurement,setting,value
"Cc1cc2c(c(C)c1CCO[C@@H]1OC(CO)[C@@H](O)[C@H](O)C1O)C(=O)[C@](C)(O)C2 (single isomer, unassigned; (-)) [Compound 18, (−)-pteroside N]",SI selectivity index (BChE/AChE),[1],1.7
"CC(=O)C1(/C(C)=C\C2=CC(=O)C(C)C2)CC1 (stereo not drawn) [Compound 2, 3-[2-(1-Acetylcyclopropyl)-1-propenyl)-5-methyl-2-cyclopenten-1-one]",IC50,[2],87.7 ± 1.6 µM
same,"AChE inhibition / IC50 rank, in words",[2],highest
same,"toxicity to normal cells, in words",[3],almost non-toxic
same,"toxicity to normal cells, in words",[3]; listed as compound of Chemical Formula 2,non-toxic
same,LD50 Cancer cell 816F10,[4],688 µM
same,"toxicity to cancerous cells, in words",[4],slightly toxic
same,IC50,[1],72.9 ± 0.73 µM
same,SI selectivity index (BChE/AChE),[1],0.83
same,IC50,[5],19.4 ± 1.7 µM
same,Inhibition type BACE1,[5],mixed type
same,"BACE1 IC50 compared with quercetin, in words",[5],lower than or similar to that of quercetin
"Cc1cc2c(c(C)c1CCO)C(=O)[C@](C)(CO)C2 [Compound 3, (2S)-pterosin A]",IC50,[2]; [6],88.7 ± 2.6 µM
same,LD50 Cancer cell 816F10,[4],522 ± 25 µM
same,"toxicity to cancerous cells, in words",[4],slight cytotoxicity
same,IC50,[1]; [7],57.3 ± 3.3 µM
same,SI selectivity index (BChE/AChE),[1],12
same,IC50,[5],64.9 ± 5.1 µM
"Cc1cc2c(c(C)c1CCO)C(=O)[C@H](C)C2 [Compound 4, (2R)-pterosin B]",Inhibition type Acetylcholinesterase,[2],mixed
same,"AChE inhibition / IC50 rank, in words",[2],excellent
same,Inhibition type Butyrylcholinesterase,[1],noncompetitive
same,SI selectivity index (BChE/AChE),[1],3.0
same,IC50,[5],18 ± 2 µM
same,Inhibition type BACE1,[5],noncompetitive
"Cc1cc2c(c(C)c1CCO)C(=O)[C@@H](C)[C@@H]2O [Compound 6, (2S,3S)-pterosin C]","BChE inhibition / IC50 rank, in words",[1],excellent
same,"BACE1 IC50 compared with quercetin, in words",[5],lower than or similar to that of quercetin
"Cc1cc2c(c(C)c1CCO)C(=O)[C@H](C)[C@H]2O [Compound 7, (2R,3R)-pterosin C]",Inhibition type Acetylcholinesterase,[2],noncompetitive
same,Inhibition type Butyrylcholinesterase,[1],mixed
same,SI selectivity index (BChE/AChE),[1],0.88
same,IC50,[5],15.9 ± 3.5 µM
same,Inhibition type BACE1,[5],mixed
same,"BACE1 IC50 compared with quercetin, in words",[5],lower than or similar to that of quercetin
"Cc1cc2c(c(C)c1CCO)C(=O)[C@@H](C)[C@H]2O [Compound 8, (2S,3R)-pterosin C]",Inhibition type Acetylcholinesterase,[2],mixed
same,Inhibition type Butyrylcholinesterase,[1],noncompetitive
same,SI selectivity index (BChE/AChE),[1],3.5
same,IC50,[5],14.1 ± 1.6 µM
same,Inhibition type BACE1,[5],noncompetitive
same,"BACE1 IC50 compared with quercetin, in words",[5],lower than or similar to that of quercetin
"Cc1cc2c(c(C)c1CCO)C(=O)C(C)(C)[C@@H]2O [Compound 9, (3R)-Pterosin D]",IC50,[1],> 12 µM
same,"BChE inhibition / IC50 rank, in words",[1],highest
same,IC50,[5],56.3 ± 3.9 µM
"Cc1c(CCO)c(CO)cc2c1C(=O)[C@@H](C)C2 [Compound 10, (2S)-pterosin P]",SI selectivity index (BChE/AChE),[1],3.1
same,IC50,[5],40.8 ± 4.1 µM
"Cc1cc2c(c(C)c1CCO)C(=O)C(C)(C)C2 [Compound 11, pterosin Z]","toxicity to normal cells, in words",[3],slightly toxic
same,LD50 Cancer cell 816F10,[4],618 ± 71 µM
same,"toxicity to cancerous cells, in words",[4],slightly toxic
same,SI selectivity index (BChE/AChE),[1],1.7
same,IC50,[5],48.7 ± 3.2 µM
"Cc1cc2c(c(C)c1CCO[C@@H]1OC(CO)[C@@H](O)[C@H](O)C1O)C(=O)[C@](C)(CO)C2 (stereo partly drawn) [Compound 12, (2S)-pteroside A]",IC50,[1]; [7],199 ± 0.25 µM
"Cc1cc2c(c(C)c1CCO)C(=O)[C@](C)(COC1O[C@H](CO)[C@@H](O)[C@H](O)[C@H]1O)C2 (stereo partly drawn) [Compound 13, (2S)-pteroside A2]",IC50,[1],119 ± 2.5 µM
same,SI selectivity index (BChE/AChE),[1],3.0
same,IC50,[5],94.4 ± 4.5 µM
"Cc1cc2c(c(C)c1CCO[C@@H]1OC(CO)[C@@H](O)[C@H](O)C1O)C(=O)[C@H](C)C2 (stereo partly drawn) [Compound 14, (2R)-pteroside B]",Inhibition type Acetylcholinesterase,[2],mixed
same,"AChE inhibition / IC50 rank, in words",[2],lowest; also recorded: excellent
same,Inhibition type Butyrylcholinesterase,[1],mixed
same,"BChE inhibition / IC50 rank, in words",[1],excellent
same,IC50,[1]; [7],17 µM
same,Inhibition type BACE1,[5],noncompetitive
"Cc1cc2c(c(C)c1CCO[C@@H]1OC(CO)[C@@H](O)[C@H](O)C1O)C(=O)[C@@H](C)[C@H]2O (stereo partly drawn) [Compound 15, (2S,3R)-pteroside C]",IC50,[2]; [6],9.57 ± 0.32 µM
same,IC50,[1]; [7],12 ± 0.14 µM
same,SI selectivity index (BChE/AChE),[1],1.4
"Cc1cc2c(c(C)c1CCO[C@@H]1OC(CO)[C@@H](O)[C@H](O)C1O)C(=O)[C@H](C)[C@H]2O (stereo partly drawn) [Compound 16, (2R,3R)-pteroside C]","AChE inhibition / IC50 rank, in words",[2],excellent
same,"BChE inhibition / IC50 rank, in words",[1],lowest
same,SI selectivity index (BChE/AChE),[1],1.4
same,Inhibition type BACE1,[5],mixed
same,"BACE1 IC50 compared with quercetin, in words",[5],lower than or similar to that of quercetin
"Cc1cc2c(c(C)c1CCO[C@@H]1OC(CO)[C@@H](O)[C@H](O)C1O)C(=O)C(C)(C)[C@H]2O (stereo partly drawn) [Compound 17, (3S)-pteroside D]",SI selectivity index (BChE/AChE),[1],0.70
same,Inhibition type BACE1,[5],mixed
same,"BACE1 IC50 compared with quercetin, in words",[5],lower than or similar to that of quercetin
"Cc1c(CCO[C@@H]2OC(CO)[C@@H](O)[C@H](O)C2O)c(CO)cc2c1C(=O)[C@@H](C)C2 (stereo partly drawn) [Compound 19, (2S)-pteroside P]",SI selectivity index (BChE/AChE),[1],0.57
"Cc1cc2c(c(C)c1CCO[C@@H]1OC(CO)[C@@H](O)[C@H](O)C1O)C(=O)C(C)(C)C2 (stereo partly drawn) [Compound 20, pteroside Z]","BChE inhibition / IC50 rank, in words",[1],excellent
same,SI selectivity index (BChE/AChE),[1],0.24
